The values that follow come from ChEMBL document CHEMBL3232731, “Diterpene glycosides and polyketides from Xylotumulus gibbisporus” (J Nat Prod, 2014).

Data set [1] concerns RAW264.7. Nature of the data set: Antiinflammatory activity in mouse RAW264.7 cells assessed as inhibition of LPS-induced nitric oxide production by spectrophotometric analysis. It is filed as functional, cell-based.
The subject of data set [2] is RAW264.7. Kind of data set: Cytotoxicity against mouse RAW264.7 cells by Alamar Blue assay. It is filed as cell-based.
Data set [3] deals with Candida albicans. Kind of data set: Antifungal activity against Candida albicans ATCC 18804 by NCCLS method. It is filed as functional.
Data set [4] relates to Candida albicans. Kind of data set: Antifungal activity against Candida albicans ATCC MYA-2876 by NCCLS method. Format: functional.
In data set [5] the test system is Saccharomyces cerevisiae. Nature of the data set: Antifungal activity against Saccharomyces cerevisiae ATCC 2345 by NCCLS method. It is filed as functional.

The structures appear in SMILES notation. Values after ≈ are worked out from the molar mass of the structure shown.

One may read the IC50 as the concentration that inhibits the measured activity by half. As for `CO[C@H]1[C@@H](O)[C@H](O)[C@H](OC[C@@]23C[C@@H]4[C@H](C)CC[C@H]4[C@@]4(C=O)C[C@@H]2C(=O)C(=C(C)C)[C@@]34C(=O)O)O[C@@H]1C`, in data set [1], the IC50 turned out to be 327 µM. Also, the Activity result in data set [2] was “Non-toxic”.

Turning to `N=C(NCCC[C@H](N)C(=O)O)N[N+](=O)[O-]` [NITROARGININE], the 50% inhibitory concentration (IC50) in data set [1] was 146 µM.

As for `N=C(N)NN` [PIMAGEDINE], the 50% inhibitory concentration (IC50) in data set [1] was determined as 22.3 µM.

By MIC is commonly meant the least concentration at which growth counts as inhibited. A high value points to a need for much substance. Turning to `CO[C@H]1[C@@H](O)[C@H](O)[C@H](OC[C@@]23C[C@@H]4[C@H](C)CC[C@H]4[C@@]4(C=O)CC2C=C(C(C)C)[C@@]34C(=O)O)O[C@@H]1C` [SORDARIN], the MIC in data set [3] was found to be 64 µg/mL (≈ 130 µM); in data set [4], 32 µg/mL (≈ 65 µM); in data set [5], 32 µg/mL (≈ 65 µM). In addition, the IC50 in data set [1] came out at 157 µM. For the same compound, the Activity entry in data set [2] is on record as “Non-toxic”.
